PubChem BioAssay (NCI)
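1) Cells in 96-well plates. 2) Compound, 48 h, 5 concentrations. 3) Linear interpolation between surrounding doses. 4) Unreached endpoint = highest concentration. GI50 = concentration required for 50% inhibition of growth. TGI marks complete inhibition of growth.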

How the values were obtained:
Assay in all cases: inhibition of tumour cell growth, NCI panel, 48 h
BT-549 breast = tested on: BT-549 breast
NCI/ADR-RES ovarian = tested on: NCI/ADR-RES ovarian
MDA-MB-435 = tested on: MDA-MB-435
DLD-1 colon = tested on: DLD-1 colon
SNB-78 CNS = tested on: SNB-78 CNS
M19-MEL melanoma = tested on: M19-MEL melanoma
MDA-N = tested on: MDA-N

| Structure (SMILES) | GI50 (BT-549 breast) | TGI (BT-549 breast) | GI50 (NCI/ADR-RES ovarian) | TGI (NCI/ADR-RES ovarian) | GI50 (MDA-MB-435) | TGI (MDA-MB-435) | TGI (DLD-1 colon) | TGI (SNB-78 CNS) | TGI (M19-MEL melanoma) | other results |
| --- | --- | --- | --- | --- | --- | --- | --- | --- | --- | --- |
| Fc1ccc(-c2ncn(C3CCNCC3)c2-c2ccnc(Oc3ccc(F)c(F)c3)n2)cc1 | 12.1 µM | > 25 µM | 8.83 µM | > 25 µM | 6.44 µM | > 15.5 µM | – | – | – | – |
| O=C(Nc1ccccc1O)c1ccc(CNc2ccnc(C(F)(F)F)c2)cc1 | 3.43 µM | 50 µM | 2.41 µM | 54.4 µM | 3.47 µM | 20.9 µM | – | – | – | – |
| O=S(=O)(N/N=C/c1cccc(Cl)c1Cl)c1ccccc1 | – | – | – | – | – | – | > 100 µM | > 100 µM | > 100 µM | – |
| COc1ccc(N/N=C(\CCN(C)C)c2ccccc2)cc1 | – | – | – | – | – | – | 11.9 µM | 26.9 µM | 13.5 µM | – |
| Clc1ccc(C2=Nn3c(nnc3-c3cc(Cl)cc(Cl)c3Cl)SC2)cc1 | 17.6 µM | 47.7 µM | 16.6 µM | > 100 µM | 2.79 µM | 11.4 µM | – | – | – | – |
| COc1cc2c3c(n(CCCNCCCNCCCNCCCN)c(=O)c2cc1OC)-c1cc2c(cc1C3=O)OCO2 | 2.2 µM | 6.44 µM | 1.83 µM | 3.22 µM | 1.45 µM | 3.18 µM | – | – | – | – |
| Cc1ccc(C2NC(=O)c3ccccc3N2)s1 (centres undefined) | – | – | – | – | – | – | > 100 µM | > 100 µM | > 100 µM | – |
| CC(=O)OC1CC2Oc3ccc(C)cc3C(C)(O2)C1=O (centres undefined) | – | – | – | – | – | – | > 100 µM | – | > 100 µM | – |
| O=C(Cc1csc(-c2nc(CC(=O)NNc3ccccc3)cs2)n1)NNc1ccccc1 | – | – | – | – | – | – | > 100 µM | > 100 µM | > 100 µM | – |
| COc1ccc(C(=O)C(c2ccc(OC)cc2)C2OC(=O)C(Cl)=C2Cl)cc1 (centres undefined) | – | – | – | – | – | – | > 100 µM | > 100 µM | > 100 µM | – |
| CN(/N=C/c1cccc2cccnc12)c1ccc([N+](=O)[O-])cc1 | – | – | – | – | – | – | > 100 µM | > 100 µM | > 100 µM | – |
| CC(=O)O[C@@H]1[C@@H](O)C2=C3[C@]4(C)[C@@H]1C(C)(C)C(=O)C[C@@H]4[C@]3(O)[C@H](OC(C)=O)[C@@]1(C[C@@H]1C)C2=O | – | 37 µM | – | 62.5 µM | – | 37.8 µM | – | – | – | – |
| COc1ccc(C[C@@H]2NC[C@@H](O)[C@@H]2OC(C)=O)cc1 | – | 0.145 µM | – | – | – | 0.0883 µM | 13.8 µM | – | > 100 µM | – |
| CCCCCCCCCc1cc[n+](CC(=O)c2ccc([N+](=O)[O-])cc2)cc1 | 1.27 µM | 2.72 µM | 2.17 µM | 4.92 µM | 0.391 µM | 1.56 µM | – | – | – | – |
| O=c1cc(-c2ccccc2)oc2cc(O)cc(O)c12 | – | – | – | – | – | – | – | 92.5 µM | 73.5 µM | – |
| CC#C/C(=N\OC[C@H]1COCCN1)c1ccc2ncnc(Nc3ccc(OCc4cccc(F)c4)c(Cl)c3)c2c1 | 6.06 µM | 20.5 µM | 1.27 µM | 2.87 µM | 1.67 µM | 3.1 µM | – | – | – | – |
| COc1ccc(-c2nc(C(=O)c3ccccc3)n(CC(=O)c3ccccc3)c2-c2ccc(OC)cc2)cc1 | > 100 µM | > 100 µM | > 100 µM | > 100 µM | > 100 µM | > 100 µM | – | – | – | – |
| CN1CCN(c2ccc(Nc3nc(N)c(C(=O)c4ccc5c(c4)OCCO5)s3)cc2)CC1 | 4.71 µM | 9.46 µM | 7.54 µM | > 25 µM | 3.44 µM | 12.2 µM | – | – | – | – |

| Structure (SMILES) | GI50 (BT-549 breast) | TGI (BT-549 breast) | GI50 (NCI/ADR-RES ovarian) | TGI (NCI/ADR-RES ovarian) | GI50 (MDA-MB-435) | TGI (MDA-MB-435) | TGI (DLD-1 colon) | TGI (SNB-78 CNS) | TGI (M19-MEL melanoma) | other results |
| --- | --- | --- | --- | --- | --- | --- | --- | --- | --- | --- |
| Cc1ccc(C(=O)Nc2ccc(S(=O)(=O)O)c3cc(S(=O)(=O)O)cc(S(=O)(=O)O)c23)cc1NC(=S)Nc1cc(C(=O)Nc2ccc(S(=O)(=O)O)c3cc(S(=O)(=O)O)cc(S(=O)(=O)O)c23)ccc1C | – | > 75 µM | – | – | – | > 75 µM | – | – | – | TGI (MDA-N): > 75 µM |
| CS(=O)(=O)CCNCc1ccc(-c2ccc3ncnc(Nc4ccc(OCc5cccc(F)c5)c(C(F)(F)F)c4)c3c2)o1 | 4.9 µM | 11.9 µM | 5.54 µM | 20.7 µM | 4.01 µM | 7.68 µM | – | – | – | – |
| COc1ccc(/C=C2\CC(C)CC3C2=NN(C(C)=O)C3c2ccc(OC)cc2)cc1 (centres undefined) | 23 µM | 55.9 µM | 21.3 µM | 73.2 µM | 19.9 µM | 49.1 µM | – | – | – | – |
| CN(C)CCSc1cccc(-c2cc(-c3cccc(SCCN(C)C)c3)nc(SCCN(C)C)n2)c1 | – | – | – | – | – | – | 25.9 µM | 6.25 µM | – | – |
| CC1(C)OB(O)OC1(C)C | – | – | – | – | – | – | > 100 µM | > 100 µM | – | – |
| O=c1c(O)cccc2cc(O)c(O)c(O)c12 | – | – | 34.5 µM | > 100 µM | 3.82 µM | > 100 µM | – | – | – | – |
| COC1=CC23CCCN2CCc2cc4c(cc2C3C1O)OCO4 (centres undefined) | – | > 100 µM | – | > 100 µM | – | > 100 µM | – | – | – | – |
| O=S(=O)(SCc1ccccc1)C(c1ccccc1)c1ccccc1 | – | – | – | – | – | – | 55.4 µM | 75.7 µM | > 100 µM | – |
| COC(=O)Nc1nc2ccc(C(=O)c3ccc(N(C)C4COC4)cc3)cc2[nH]1 | 2.08 µM | > 100 µM | 0.362 µM | > 100 µM | – | – | – | – | – | – |
| N#CSc1c[nH]c2ccc(/C=C/C(=O)/C=C(/C=C/c3ccc4[nH]cc(SC#N)c4c3)OB(F)F)cc12 | 0.835 µM | 3.43 µM | 1.74 µM | > 100 µM | 1.44 µM | 3.25 µM | – | – | – | – |
| NCCN.NCCN.O=C[O-].O=C[O-].[Co+3].[O-][Cl+3]([O-])([O-])[O-] | – | – | – | – | – | – | > 100 µM | > 100 µM | > 100 µM | GI50 (DLD-1 colon): > 100 µM; GI50 (SNB-78 CNS): > 100 µM; GI50 (M19-MEL melanoma): > 100 µM |
| O=C(/C=N/O)Nc1cc(Cl)c(Cl)cc1Cl | – | 89.3 µM | – | > 100 µM | – | 67 µM | – | – | – | TGI (MDA-N): > 100 µM |
| CCN(CC)c1ccc2c(c1)Oc1nc(N)c(C#N)c(N)c1C2Sc1ccc(OC)cc1 (centres undefined) | 1.53 µM | 2.95 µM | 2.81 µM | 8.86 µM | 1.79 µM | 3.4 µM | – | – | – | – |
| CC(=O)C1C(=O)NC(=O)C1=O (centres undefined) | – | – | – | – | – | – | – | > 100 µM | > 100 µM | – |
| CC(C)CC(=O)Nc1n[nH]c2c1CN(C(=O)C1CCN(C)CC1)C2(C)C | 3.86 µM | > 10 µM | > 10 µM | > 10 µM | 1.41 µM | > 10 µM | – | – | – | – |
| CCN(CC)CCCC(C)Nc1ccnc2ccc3nn(C)nc3c12 (centres undefined) | – | – | – | – | – | – | > 100 µM | > 100 µM | > 100 µM | – |
| COc1cc(Nc2ncc(F)c(Nc3ccc4c(n3)NC(=O)C(C)(C)O4)n2)cc(OC)c1OC | 3.24 µM | > 10 µM | > 10 µM | > 10 µM | > 10 µM | > 10 µM | – | – | – | – |
